Measurements: PMC8272148, “Antioxidant Serine-(NSAID) Hybrids with Anti-Inflammatory and Hypolipidemic Potency” (Molecules, 2021)
Marks after values point to notes of the source that are not given here.

How the values were obtained:
[1] = system: rat hepatic microsomal membrane lipid peroxidation; assay: Inhibition of rat hepatic microsomal membrane lipid peroxidation (ferrous ascorbate induced, TBA reactive material); type: biochemical; conditions: 100 μM compound, after 45 min of incubation
Experimental: The peroxidation of the heat-inactivated rat hepatic microsomal fraction was induced by ferrous ascorbate. The studied compounds, in dimethylsulfoxide, were added at concentrations of 1 μM–1 mM. Aliquots were taken from the incubation mixture (37 °C) for 45 min. Lipid peroxidation was assessed spectrophotometrically (535/600 nm) as a 2-thiobarbituric acid reactive material. The incubation mixture and solvents were found not to interfere with the assay.

[2] = Interaction with the stable radical DPPH; conditions: DPPH 200 μM, after 30 min
Experimental: Compounds, dissolved in absolute ethanol, at concentrations of 25–200 μM, were added to an equal volume of an ethanolic solution of DPPH (final concentration 200 μM) at room temperature (22 ± 2 °C). Absorbance (517 nm) was recorded after 30 min [26]. For the calculation of percent interaction, the residual absorbance of DPPH Ai (at a fixed concentration) after its interaction with the examined compounds (at various concentrations) was compared with the control absorbance Ao, without the addition of compounds, following the equation: (1) Percent interaction=100−(Ai/Ao×100)

[3] = system: carrageenan-induced rat paw edema; assay: Carrageenan-induced rat paw edema; type: in vivo, Wistar rats; conditions: ip, 0.15 mmol/kg i.p., 3.5 h after carrageenan, vs controls, read-out: % Edema Reduction
Experimental: An amount of 0.1 mL of an aqueous carrageenan solution (1% w/v) was injected into the hind paw of adult Wistar rats (6 rats were used for each compound). The tested compounds (in water with a few drops of Tween 80) were administered i.p. (0.15 mmol/kg) 5 min before the carrageenan administration. The produced edema, after 3.5 h, was estimated as paw weight increase.

[4] = molecular target: T1, soybean lipoxygenase 1-B (Glycine max, UniProt P08170); assay: In vitro inhibition of soybean lipoxygenase; type: biochemical; conditions: linoleic acid (100 μM) as substrate, after 7 min of incubation
T1 sequence (P08170 1-839): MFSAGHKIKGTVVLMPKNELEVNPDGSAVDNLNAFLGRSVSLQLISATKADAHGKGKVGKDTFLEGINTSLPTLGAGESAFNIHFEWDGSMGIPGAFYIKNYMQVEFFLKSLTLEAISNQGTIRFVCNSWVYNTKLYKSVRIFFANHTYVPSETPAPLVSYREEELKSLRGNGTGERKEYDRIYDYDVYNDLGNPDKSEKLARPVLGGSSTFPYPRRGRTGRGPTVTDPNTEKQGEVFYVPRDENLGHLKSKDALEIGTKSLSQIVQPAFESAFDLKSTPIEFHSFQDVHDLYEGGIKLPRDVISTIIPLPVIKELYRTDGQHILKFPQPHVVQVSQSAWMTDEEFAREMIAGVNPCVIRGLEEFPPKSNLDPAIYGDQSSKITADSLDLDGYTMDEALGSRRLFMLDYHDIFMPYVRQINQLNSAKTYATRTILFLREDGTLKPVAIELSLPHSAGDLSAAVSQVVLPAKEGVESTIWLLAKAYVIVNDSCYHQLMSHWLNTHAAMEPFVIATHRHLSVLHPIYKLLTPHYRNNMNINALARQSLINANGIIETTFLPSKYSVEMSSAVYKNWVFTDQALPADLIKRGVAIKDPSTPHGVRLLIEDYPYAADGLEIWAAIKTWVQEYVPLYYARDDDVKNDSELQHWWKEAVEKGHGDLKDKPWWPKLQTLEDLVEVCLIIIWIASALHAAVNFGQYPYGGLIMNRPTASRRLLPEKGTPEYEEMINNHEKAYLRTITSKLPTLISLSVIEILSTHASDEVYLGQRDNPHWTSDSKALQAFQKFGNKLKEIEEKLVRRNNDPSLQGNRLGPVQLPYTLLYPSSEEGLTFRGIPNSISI
Experimental: The reaction mixture contained the test compounds, dissolved in absolute ethanol (0.1 mL) at various concentrations, or the solvent (control, 0.1 mL), soybean lipoxygenase dissolved in 0.9% NaCl solution (250 u/mL, 0.2 mL) and sodium linoleate (100 μM) in Tris–HCl buffer, pH 9.0 (2.7 mL). The reaction was followed for 7 min at 28 °C, recording the absorbance of a conjugated diene structure at 234 nm, due to the formation of 13-hydroperoxy-linoleic acid. […] For the estimation of the type of inhibition, the above experiments were repeated, using sodium linoleate at 1 mM, which is higher than the saturating substrate concentration.

[5] = system: Triton WR1339 (tyloxapol)-induced hyperlipidemia; assay: Triton WR1339 (tyloxapol)-induced hyperlipidemia in rats; type: in vivo, Wistar rats; conditions: 150 μmol/kg i.p., rat plasma, 24 h, tyloxapol 200 mg/kg i.p.
Experimental: The examined compounds (0.15 mmol/kg) were administered i.p. one hour later. Blood was taken from the aorta after 24 h, for the determination of plasma total cholesterol, LDL cholesterol and triglyceride concentration, using commercial kits.

IC50 [4]: 90 µM
SMILES: CCOC(=O)C(COC(=O)C(C)c1cccc(C(=O)c2ccccc2)c1)NC(=O)/C=C/c1cc(C(C)(C)C)c(O)c(C(C)(C)C)c1 (stereo not shown) [Compound 12, (E)-ethyl 3-((2-(3-benzoylphenyl)propanoyl)oxy)-2-(3-(3,5-di-tert-butyl-4-hydroxyphenyl)acrylamido)propanoate]
Inhibition of Lipid Peroxidation, percent at 100 μM [1]: 20%/100 μM | Percent Interaction with DPPH ([2]; compound 25 μM): 20.0% | Percent Interaction with DPPH ([2]; compound 50 μM): 24.7% | Percent Interaction with DPPH ([2]; compound 100 μM): 53.8% | Percent Interaction with DPPH ([2]; compound 200 μM): 94.0% | inhibition in vivo at 150 µmol/kg [3]: 59% | % Reduction LDL-C (LDL cholesterol) [5]: 56.2 * % | % Reduction TC (total cholesterol) [5]: 53.4 ** % | % Reduction TG (triglycerides) [5]: 33.2 * %
